Data on three molecules can be found in publication PMC10205801 (2023).

The subject of test [1] is Beetroot (RNA, aptamer) GCGCCGGUUAGGCAGAGGUGGGUGGUGUGGAGGAGUAUCUGUCCGGCGC
The test can be described thus: fluorescence titration. As to conditions: 150 mM K+, 5 mM Mg2+; 20 mM MOPS-KOH pH 7.0; RNA titrated into dye.

Test [2] concerns F30-wild-type Beetroot / Wobble Beetroot heterodimer (RNA, aptamer) GGAGCCAUGUGUAUGUGGUCCGCGCCGGUUAGGCAGAGGUGGGUGGUGUGGAGGAGUAUCUGUCCGGCGCGGACCACAUACUCUGAUGAUCCUUCGGGAUCAUUCAUGGCUCC/GCGCCGGUUAGGCAGUGGUGGGUGGUGUGGAGGAGUAGCUGUCCGGCGC
The test can be described thus: fluorescence emission spectrum. To be noted: 150 mM K+, 5 mM Mg2+; 20 mM MOPS-KOH pH 7.

Test [3] concerns A16U + U38G (Wobble Beetroot) (RNA, aptamer) GCGCCGGUUAGGCAGUGGUGGGUGGUGUGGAGGAGUAGCUGUCCGGCGC
Briefly: fluorescence titration. To be noted: 150 mM K+, 5 mM Mg2+; 20 mM MOPS-KOH pH 7.0; RNA titrated into dye.

Test [4] has as its system F30_Beetroot (RNA, aptamer) GGAGCCAUGUGUAUGUGGUCCGCGCCGGUUAGGCAGAGGUGGGUGGUGUGGAGGAGUAUCUGUCCGGCGCGGACCACAUACUCUGAUGAUCCUUCGGGAUCAUUCAUGGCUCC
The test can be described thus: fluorescence emission spectrum. As to conditions: 150 mM K+, 5 mM Mg2+; 20 mM MOPS-KOH pH 7.

The test system of test [5] is Beetroot (RNA, aptamer) GCGCCGGUUAGGCAGAGGUGGGUGGUGUGGAGGAGUAUCUGUCCGGCGC
Briefly: ITC. As to conditions: 150 mM K+, 5 mM Mg2+; 20 mM MOPS-KOH pH 7.0, 25 °C (methods; text gives 21 °C); two equivalent sites per dimer; per site.

Test [6] concerns A16U + U38A (RNA, aptamer) GCGCCGGUUAGGCAGUGGUGGGUGGUGUGGAGGAGUAACUGUCCGGCGC
The test can be described thus: fluorescence activation. As to conditions: 150 mM K+, 5 mM Mg2+; 20 mM MOPS-KOH pH 7.0; considerably less fluorescent than wild-type.

Test [7] deals with A31U (RNA, aptamer) GCGCCGGUUAGGCAGAGGUGGGUGGUGUGGUGGAGUAUCUGUCCGGCGC
Briefly: fluorescence activation. As to conditions: 150 mM K+, 5 mM Mg2+; 20 mM MOPS-KOH pH 7.0; fluorescence reduced at least 50% relative to wild-type.

The test system of test [8] is J1/2 deletion (RNA, aptamer) GCGCCGGGCAGAGGUGGGUGGUGUGGAGGAGUAUCUGUCCGGCGC
The test can be described thus: fluorescence activation. To be noted: 150 mM K+, 5 mM Mg2+; 20 mM MOPS-KOH pH 7.0; fluorescence comparable to wild-type.

For test [9], the system named is A31C (RNA, aptamer) GCGCCGGUUAGGCAGAGGUGGGUGGUGUGGCGGAGUAUCUGUCCGGCGC
Briefly: fluorescence activation. As to conditions: 150 mM K+, 5 mM Mg2+; 20 mM MOPS-KOH pH 7.0; fluorescence reduced at least 50% relative to wild-type.

The subject of test [10] is A16C + U38G (RNA, aptamer) GCGCCGGUUAGGCAGCGGUGGGUGGUGUGGAGGAGUAGCUGUCCGGCGC
Briefly: fluorescence activation. As to conditions: 150 mM K+, 5 mM Mg2+; 20 mM MOPS-KOH pH 7.0; considerably less fluorescent than wild-type.

Test [11] concerns Beetroot (RNA, aptamer) GCGCCGGUUAGGCAGAGGUGGGUGGUGUGGAGGAGUAUCUGUCCGGCGC
Briefly: co-crystal structure, 2.1 Å; fluorescence activation. To be noted: K+.

By Kd is commonly meant the concentration at which binding is half-saturated. As to `CN1C(=O)/C(=C/c2cc(F)c(O)c(F)c2)N=C1/C=N/O`, the figures for the Kd in [1] and in test [3] were 9.3 ± 1.5 µM and 7.6 ± 0.8 µM, respectively. Further, the binding entry in [2] was “yes”.

`COC(=O)/C=C/C1=NC(=C\c2cc(F)c(O)c(F)c2)/C(=O)N1C`: the binding entry in [4], in test [6], in test [2], in [7], in [8] and in [9] was “yes” in each case. The binding result in test [10] is on record as “yes”. Also, the Kd in test [1] was 1.55 µM; in test [5], 0.47 ± 0.18 µM; in [3] it was 4.9 ± 1.2 µM.

Consider `Cc1ccc2c(c1)sc(-c1ccc(N(C)C)cc1)[n+]2C`, for which, in test [11], the binding entry is listed as “yes”.
